From patent US20210395250A1, “NOVEL CRYSTAL OF (3S)-3-[2-(6-AMINO-2-FLUOROPYRIDIN-3-YL)-4-FLUORO-1H-IMIDAZOL-5-YL]-7-[5-CHLORO-2-(1H-TETRAZOL-1-YL)PHENYL]-2,3-DIHYDROINDOLIZIN-5(1H)-ONE” (priority 2018, published 2021)
In brackets after ≈: the same amount, converted by molar mass. Like-named read-outs stand apart in the source and are kept apart here.

What was measured:
[1] = Evaluation of hygroscopicity: isothermal absorption curve measurement (DVS); type: physicochemical
Method: Physical Chemical Example 1: Evaluation of Hygroscopicity
An isothermal absorption curve measurement (DVS) was carried out under the following conditions.
Device: DVS Intrinsic, manufactured by SMS
Measurement temperature: 25° C.
Measurement range: relative humidity of 0 to 95%
Interval of measurement: relative humidity of 5%

[2] = Evaluation of solubility in JP 1st fluid and artificial intestinal juice (FaSSIF), HPLC; type: physicochemical; conditions: after 24 hours; for solubility at 24 h: 37 °C, thermodynamic from solid
Method: The measurement of solubility was carried out under the following conditions.
About 3 mg of each of the compounds of the present invention was weighed in a test tube, then a stirrer and 5 mL of each of an artificial intestinal juice (FaSSIF; Reference Document 1: Pharmaceutical Research, vol. 20, pp. 1674-1680, 2003; Reference Document 2: Biological & Pharmaceutical Bulletin, vol. 34, pp. 401-407, 2011) and JP 1st fluid which had been warmed to 37° C. were added to the test tube, and then the test tube was sealed hermetically. The test tube was installed in a solubility test device (Gilson, Quad-Z 215), and the solution was stirred at 37° C. and 700 rpm. After 0.25, 0.5, 1, 3, 6 and 24 hours, an aliquot of the solution in the test tube was collected. The collected solution was filtrated through a filter, and a filtrate was diluted two-folds with acetonitrile. A diluted solution of the artificial intestinal juice was centrifuged at 3000 rpm for 5 minutes, and a supernatant was used as a sample solution. A diluted solution of the JP 1st fluid was used as is as a sample solution. Solubility was calculated by a high-performance liquid chromatography method.
Column: Waters Xbridge ShieldRP18 (4.6 mm (inner diameter)×50 mm, 3.5 μm) Column temperature: 40° C. Component of mobile phase: 20 mM potassium dihydrogen phosphate (pH 3.0)/acetonitrile (0 minute: 70/30, 5 minutes: 25/75)
Flow rate: 1.0 mL/min Sample rack temperature: 15° C. Sample injection amount: 10 μL Measurement time: 5 minutes Retention time: 2.6 minutes

[3] = Evaluation of oral absorption after oral administration of suspensions to monkeys; conditions: for oral absorption rate (%): cynomolgus monkeys/male, fasted, 1 mg/kg oral suspension in 0.5% aqueous methyl cellulose, oral AUC / intravenous AUC (1 mg/kg) x 100
Method: The measurement of oral absorption was carried out under the following conditions.
Each of the suspensions was prepared with a 0.5% aqueous methyl cellulose solution at a concentration of 0.33 mg/mL (in terms of free base content). Each of the suspensions was administered to monkeys (cynomolgus monkeys/male), which had been fasted since the day before, in the stomach thereof forcibly with a sonde. The amount of administration was adjusted depending on the body weight of each of the monkeys so that the dosage amount became 1 mg/kg.
After the administration of the suspensions (liquid pharmaceuticals), at the timing of 0.25, 0.5, 1, 2, 4, 7 and 24 hours after the administration, blood (0.5 mL) was collected from the cephalic vein with a heparin-added syringe. The collected blood was centrifuged at 10000 G for 5 minutes to separate plasma from the blood. In the evaluation of the oral absorption of the test compounds, data obtained when the test compounds were administered intravenously at the same dose amounts (1 mg/kg) were employed. The oral absorption rate (%) was calculated by dividing an AUC (area under the blood concentration-time curve) value obtained in the oral administration by an AUC value obtained in the intravenous administration and then multiplying the resultant value by 100.
The whole volume of the solution was added to Oasis HLB μElution Plate through which acetonitrile (200 μL) and purified water (200 μL) had been passed, and was then sucked under reduced pressure. Purified water (200 μL) was added to the solution, and the resultant solution was washed by sucking under reduced pressure. Acetonitrile (200 μL) was added to the solution, the resultant solution was sucked under reduced pressure, and an eluate was collected in a 96-well plate. The eluate (10 μL) was added to a 0.1% aqueous formic acid solution/acetonitrile (2/1) solution (290 μL), and the resultant solution was stirred and was then analyzed by LC/MS/MS.
The analysis by LC/MS/MS was carried out under the following conditions.
Measurement device: API-5000 (manufactured by Applied Biosystems/MDS SCIEX) Analysis column: Cadenza CD-C18 (2.0 mm I.D.×100 mm, 3 μm) Flow rate: 0.4 mL/min. Components of mobile phase: a 0.1% aqueous formic acid solution/acetonitrile (0 minute: 65/35, 4.0 minutes: 65/35, 4.1 minutes: 10/90, 5.0 minutes: 10/90, 5.1 minutes: 65/35, 7.0 minutes: 65/35) Scan type: MRM (Multiple Reaction Monitoring)

[4] = artificial intestinal juice (FaSSIF), 37° C., 700 rpm
[5] = artificial intestinal juice (FaSSIF), 37° C.

Row | Compound | hygroscopicity (in words) [1] | Solubility, JP 1st fluid ([2]; JP 1st fluid, 37° C., 700 rpm) | Solubility, Artificial intestinal juice [2, 4] | solubility in the artificial intestinal juice [2, 5] | oral absorption rate (%) [3] | also measured
1 | Nc1ccc(-c2nc(F)c([C@@H]3CCc4cc(-c5cc(Cl)ccc5-n5cnnn5)cc(=O)n43)[nH]2)c(F)n1 [Example 1(11), (3S)-3-[2-(6-amino-2-fluoro-3-pyridinyl)-4-fluoro-1H-imidazol-5-yl]-7-[5-chloro-2-(1H-tetrazol-1-yl)phenyl]-2,3-dihydro-5(1H)-indolizinone dihydrate] | high hygroscopicity | – | – | – | – | solubility at 24 h ([2]; JP 1st fluid, simulated gastric fluid, JP 1st fluid, 700 rpm, read-out: Solubility, JP 1st fluid): 41 µg/mL; solubility at 24 h ([2]; JP 1st fluid, simulated gastric fluid, JP 1st fluid, read-out: solubility in the JP 1st fluid): 41 µg/mL; solubility at 24 h ([2]; artificial intestinal juice (FaSSIF), fassif, artificial intestinal juice (FaSSIF), 700 rpm, read-out: Solubility, Artificial intestinal juice): 47 µg/mL; solubility at 24 h ([2]; artificial intestinal juice (FaSSIF), fassif, artificial intestinal juice (FaSSIF), read-out: solubility in the artificial intestinal juice): 47 µg/mL; oral absorption rate (%) ([3]; dihydrate): 26%; oral absorption (in words) ([3]; monkeys, oral): poor oral absorption
2 | Nc1ccc(-c2nc(F)c([C@@H]3CCc4cc(-c5cc(Cl)ccc5-n5cnnn5)cc(=O)n43)[nH]2)c(F)n1 [Example 5, (3S)-3-[2-(6-Amino-2-fluoropyridin-3-yl)-4-fluoro-1H-imidazol-5-yl]-7-[5-chloro-2-(1H-tetrazol-1-yl)phenyl]-2,3-dihydroindolizin-5(1H)-one-3-hydroxybenzoic acid (1/1)] | – | 75 μg/m | 60 μg/m | 60 µg/mL (≈ 118 µM) | ~100% | weight change rate ([1]; DVS, 25° C., relative humidity of 0 to 95%): less than 1%; solubility in the JP 1st fluid ([2]; JP 1st fluid, 37° C.): 75 µg/mL (≈ 148 µM)
3 | (3S)-3-[2-(6-Amino-2-fluoropyridin-3-yl)-4-fluoro-1H-imidazol-5-yl]-7-[5-chloro-2-(1H-tetrazol-1-yl)phenyl]-2,3-dihydroindolizin-5(1H)-one-3-hydroxybenzoic acid (1/1) [Example 5] | low hygroscopicity | – | – | – | – | –
4 | (3S)-3-[2-(6-Amino-2-fluoropyridin-3-yl)-4-fluoro-1H-imidazol-5-yl]-7-[5-chloro-2-(1H-tetrazol-1-yl)phenyl]-2,3-dihydroindolizin-5(1H)-one-nicotinamide (2/1) [Example 4] | – | 77 μg/m | 60 μg/m | 60 µg/mL | 44% | –
